Results: ChEMBL document CHEMBL4819010, “Design, synthesis, and biological studies of novel 3-benzamidobenzoic acid derivatives as farnesoid X receptor partial agonist” (Eur J Med Chem, 2021)
Calls of active or inactive are those of the source. The calls are words filed in the database; no cut-off is given here.

Tests used:
Bile acid receptor = molecular target: T1, Bile acid receptor (Homo sapiens, UniProt Q96RI1); test: Agonist activity at FXR-LBD (unknown origin) assessed by ligand binding ability incubated for 3 hrs in absence of light measured by TR-FRET Coactivator assay
T1 sequence (Q96RI1 whole entry): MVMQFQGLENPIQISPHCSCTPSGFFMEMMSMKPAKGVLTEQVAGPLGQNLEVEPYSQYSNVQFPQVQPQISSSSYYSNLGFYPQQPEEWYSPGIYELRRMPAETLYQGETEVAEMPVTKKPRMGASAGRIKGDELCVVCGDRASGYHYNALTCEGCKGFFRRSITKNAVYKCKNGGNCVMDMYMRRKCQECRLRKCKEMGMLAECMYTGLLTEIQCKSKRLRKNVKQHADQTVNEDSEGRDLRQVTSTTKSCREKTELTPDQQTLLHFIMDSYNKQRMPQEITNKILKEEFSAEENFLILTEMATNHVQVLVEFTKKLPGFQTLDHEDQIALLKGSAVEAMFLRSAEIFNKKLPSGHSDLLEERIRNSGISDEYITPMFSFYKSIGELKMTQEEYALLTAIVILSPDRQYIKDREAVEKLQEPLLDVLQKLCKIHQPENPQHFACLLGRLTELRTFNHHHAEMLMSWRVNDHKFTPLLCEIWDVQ

Mus musculus [1] = test: Hepatoprotective activity in APAP-induced C57BL/6 mouse liver injury model assessed as decrease in hepatic haemorrhage at 30 mg/kg, bid oral gavage for 5 days measured after 12 hrs of APAP injection; format: functional, organism-based; conditions: time 5.0 day
Mus musculus [2] = test: Hepatoprotective activity in APAP-induced C57BL/6 mouse liver injury model assessed as decrease in hepatic necrosis at 30 mg/kg, bid oral gavage for 5 days measured after 12 hrs of APAP injection; format: functional, organism-based; conditions: time 5.0 day
Mus musculus [3] = test: Hepatoprotective activity in APAP-induced C57BL/6 mouse liver injury model assessed as decrease in serum AST levels at 30 mg/kg, bid oral gavage measured after 5 days; format: functional, organism-based; conditions: time 5.0 day
Mus musculus [4] = test: Hepatoprotective activity in APAP-induced C57BL/6 mouse liver injury model assessed as decrease in serum ALT levels at 30 mg/kg, bid oral gavage measured after 5 days; format: functional, organism-based; conditions: time 5.0 day
Mus musculus [5] = test: Hepatoprotective activity in APAP-induced C57BL/6 mouse liver injury model assessed as decrease in hepatic degeneration at 30 mg/kg, bid oral gavage for 5 days measured after 12 hrs of APAP injection; format: functional, organism-based; conditions: time 5.0 day
Mus musculus [6] = test: Hepatoprotective activity in APAP-induced C57BL/6 mouse liver injury model assessed as decrease in serum LDH levels at 30 mg/kg, bid oral gavage measured after 5 days; format: functional, organism-based; conditions: time 5.0 day
[7] = Agonist activity at FXR (unknown origin)/human RXR heterodimer expressing in human HepG2 cells co-expressing pCMV gal assessed luciferase activity measured after 24 hrs by cell based luciferase transactivation assay; conditions: HepG2, 24 h
HepG2 = test: Agonist activity at FXR (unknown origin)/human RXR heterodimer expressing in human HepG2 cells co-expressing pCMV gal assessed luciferase activity measured after 24 hrs by cell based luciferase transactivation assay relative to […]; conditions: dose 3.0 µM

SMILES	EC50 (Bile acid receptor) [nM]	also measured
CCCCOc1ccc(C(=O)Nc2cccc(C(=O)O)c2)cc1	105	–
Cc1ccc(NC(=O)c2ccc(Oc3ccccc3)cc2)cc1C(=O)O	127	–
CCCCOc1cccc(-c2cccc(C(=O)Nc3cccc(C(=O)O)c3)c2)c1	256	–
CC(Oc1cccc(NC(=O)c2ccc(Oc3ccccc3)cc2)c1)C(=O)O (stereo not drawn)	> 10000	–
Cc1nc(-c2ccc(C(F)(F)F)cc2)sc1C(=O)Nc1cccc(C(=O)O)c1	315	–
CC(C)CCOc1ccc(C(=O)Nc2cccc(C(=O)O)c2)cc1	215	–
COc1ccc(C(=O)Nc2cccc(C(=O)O)c2)cc1	607	–
COc1ccccc1C(=O)Nc1ccc(C)c(C(=O)O)c1	> 10000	–
COc1cccc(C(=O)Nc2cccc(C(=O)O)c2)c1	1040	–
Cc1ccc(NC(=O)c2cccc(C(=O)O)c2)cc1	> 10000	–
O=C(O)c1ccc(OCc2ccc(OCc3c(-c4c(Cl)cccc4Cl)noc3C3CC3)cc2)cc1	265	Activity (Mus musculus [1]): Active; Activity (Mus musculus [2]): Active; Activity (Mus musculus [3]): Active; Activity (Mus musculus [4]): Active; Activity (Mus musculus [5]): Active; Activity (Mus musculus [6]): Active
O=C(O)c1cccc(NC(=O)c2ccc(Oc3ccccc3)cc2)c1	97	EC50 [7]: 463 nM; Activity (Mus musculus [1]): Active; Activity (Mus musculus [2]): Active; Activity (Mus musculus [3]): Active; Activity (Mus musculus [4]): Active; Activity (HepG2): 21.2%; Activity (Mus musculus [5]): Active; Activity (Mus musculus [6]): Active
Cc1cccc(COc2cccc(C(=O)Nc3cccc(C(=O)O)c3)c2)c1	1860	–
O=C(Nc1ccccc1C(=O)O)c1ccc(Oc2ccccc2)cc1	> 10000	–
O=C(O)c1cccc(NC(=O)c2cccc(OCc3ccccc3)c2)c1	1160	–
O=C(O)c1cccc(OCc2ccc(Oc3ccccc3)cc2)c1	> 10000	–
Cc1cc(C(=O)Nc2cccc(C(=O)O)c2)nn1-c1ccccc1	> 10000	–
O=C(O)c1cccc(NC(=O)c2csc(-c3ccc(C(F)(F)F)cc3)n2)c1	1690	–
Cc1ccccc1-c1cccc(COc2ccc(C(=O)Nc3cccc(C(=O)O)c3)cc2)c1	1020	–
